From ChEMBL document CHEMBL6153077, “Design, synthesis, and anti-liver fibrosis activity of novel non-steroidal vitamin D receptor agonists based on open-ring steroid scaffold” (Eur J Med Chem, 2025) come the findings set out here.

Assay [1] concerns LX-2. Briefly: Inhibition of HSC activation in TGF-beta1-treated human LX2 cells harboring VDR siRNA assessed as decrease in alpha-SMA level at 0.5 uM incubated for 24 hrs by Western blot analysis. It counts as functional, cell-based. On the technique in general: A western blot detects proteins with antibodies after separation by electrophoresis.
Assay [2] deals with T1, Vitamin D3 receptor (Homo sapiens) (UniProt P11473).
T1 sequence (whole entry): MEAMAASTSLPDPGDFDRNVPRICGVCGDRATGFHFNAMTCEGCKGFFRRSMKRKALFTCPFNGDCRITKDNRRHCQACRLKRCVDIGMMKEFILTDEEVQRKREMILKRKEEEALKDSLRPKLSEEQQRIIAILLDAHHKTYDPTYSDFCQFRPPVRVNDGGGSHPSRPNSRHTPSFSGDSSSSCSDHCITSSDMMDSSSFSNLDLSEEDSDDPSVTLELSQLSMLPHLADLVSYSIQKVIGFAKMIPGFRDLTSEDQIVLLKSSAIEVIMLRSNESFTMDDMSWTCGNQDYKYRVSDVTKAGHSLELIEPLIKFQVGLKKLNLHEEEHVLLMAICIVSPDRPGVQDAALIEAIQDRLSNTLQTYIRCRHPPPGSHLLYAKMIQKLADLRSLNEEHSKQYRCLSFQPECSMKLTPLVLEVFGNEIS
The experiment in a line: Agonist activity at human VDR in HEK293 cells co-expressing 3-Luc/RXRalpha assessed as transcriptional activity at 0.5 uM by dual luciferase reporter assay. It counts as cell-based. The following applies: filed as agonist. (In general: Reporter assays use an easily measured gene product as a stand-in for the process of interest.)

For assay [3], the system named is LX-2. Briefly: Inhibition of HSC activation in TGF-beta1-treated human LX2 cells assessed as decrease in alpha-SMA level at 0.5 uM incubated for 24 hrs by Western blot analysis. It counts as functional, cell-based.
Assay [4] concerns Mus musculus. Briefly: Anti-fibrotic activity in CCl4-induced hepatic fibrosis C57BL/6 mouse model assessed as increase in IL-10 level in liver at 500 ug/kg, po administered daily for 2 weeks by ELISA. Format: functional, organism-based. The following applies: […]. In general terms: ELISA stands for enzyme-linked immunosorbent assay.
Assay [5] concerns the target T1, Vitamin D3 receptor (Homo sapiens). Briefly: Binding affinity to full-length VDR (unknown origin) at 1 uM by fluorescence polarization assay relative to control. The settings on record: filed as agonist.
In assay [6] the test system is Mus musculus. The experiment in a line: Anti-fibrotic activity in CCl4-induced hepatic fibrosis C57BL/6 mouse model assessed as decrease in Timp-1 mRNA level in liver at 500 ug/kg, po administered daily for 2 weeks by qPCR analysis. Format: functional, organism-based. The settings on record: […].
The subject of assay [7] is Mus musculus. Briefly: Anti-fibrotic activity in CCl4-induced hepatic fibrosis C57BL/6 mouse model assessed as decrease in Fn mRNA level in liver at 500 ug/kg, po administered daily for 2 weeks by qPCR analysis. It counts as functional, organism-based. The following applies: […].
In assay [8] the test system is Mus musculus. Briefly: Anti-fibrotic activity in CCl4-induced hepatic fibrosis C57BL/6 mouse model assessed as reduction in ALT level at 500 ug/kg, po administered daily for 2 weeks. It counts as functional, organism-based. The following applies: […].
The subject of assay [9] is Mus musculus. Briefly: Anti-fibrotic activity in CCl4-induced hepatic fibrosis C57BL/6 mouse model assessed as reduction in IL-1beta level in liver at 500 ug/kg, po administered daily for 2 weeks by ELISA. Format: functional, organism-based. The settings on record: […].
The subject of assay [10] is Mus musculus. Briefly: Anti-fibrotic activity in CCl4-induced hepatic fibrosis C57BL/6 mouse model assessed as reduction in TBA level at 500 ug/kg, po administered daily for 2 weeks. The following applies: […]. Format: functional, organism-based.
The subject of assay [11] is LX-2. The experiment in a line: Inhibition of HSC activation in TGF-beta1-treated human LX2 cells assessed as decrease in collagen-I level at 0.5 uM incubated for 24 hrs by Western blot analysis. Format: functional, cell-based.
The subject of assay [12] is LX-2. Briefly: Inhibition of HSC activation in TGF-beta1-treated human LX2 cells assessed as decrease in COL1A1 mRNA level at 0.5 uM incubated for 24 hrs by qPCR analysis. It counts as functional, cell-based.
Assay [13] has as its system Mus musculus. The experiment in a line: Anti-fibrotic activity in CCl4-induced hepatic fibrosis C57BL/6 mouse model assessed as prevention of serum calcium level elevation at 500 ug/kg, po administered daily for 2 weeks. It counts as functional, organism-based.
In assay [14] the test system is Mus musculus. The experiment in a line: Anti-fibrotic activity in CCl4-induced hepatic fibrosis C57BL/6 mouse model assessed as reduction in hepatic lesion in liver at 500 ug/kg, po administered daily for 2 weeks by H and E/Masson's trichrome staining based analysis. It counts as functional, organism-based. The settings on record: […].
Assay [15] has as its system Mus musculus. Briefly: Anti-fibrotic activity in CCl4-induced hepatic fibrosis C57BL/6 mouse model assessed as decrease in Ctgf mRNA level in liver at 500 ug/kg, po administered daily for 2 weeks by qPCR analysis. It counts as functional, organism-based. The following applies: […].
The target of assay [16] is T1, Vitamin D3 receptor (Homo sapiens). The experiment in a line: Agonist activity at VDR in human LX2 cells assessed as increase in CYP24A1 level at 0.5 uM by qRT-PCR analysis. Format: cell-based. The following applies: filed as agonist.
For assay [17], the system named is Mus musculus. Briefly: Anti-fibrotic activity in CCl4-induced hepatic fibrosis C57BL/6 mouse model assessed as reduction in AST level at 500 ug/kg, po administered daily for 2 weeks. It counts as functional, organism-based. The following applies: […].
For assay [18], the system named is LX-2. Briefly: Inhibition of HSC activation in TGF-beta1-treated human LX2 cells assessed as decrease in ACTA2 mRNA level at 0.5 uM incubated for 24 hrs by qPCR analysis. It counts as functional, cell-based.
Assay [19] relates to Mus musculus. Briefly: Anti-fibrotic activity in CCl4-induced hepatic fibrosis C57BL/6 mouse model assessed as reduction in alpha-SMA level in liver at 500 ug/kg, po administered daily for 2 weeks by immunofluorescence based analysis. Format: functional, organism-based. The following applies: […].
Assay [20] concerns Mus musculus. The experiment in a line: Anti-fibrotic activity in CCl4-induced hepatic fibrosis C57BL/6 mouse model assessed as reduction in collagen deposition in liver at 500 ug/kg, po administered daily for 2 weeks by H and E/Masson's trichrome staining based analysis. The following applies: […]. Format: functional, organism-based.
For assay [21], the system named is LX-2. The experiment in a line: Inhibition of HSC activation in TGF-beta1-treated human LX2 cells harboring VDR siRNA assessed as decrease in collagen-I level at 0.5 uM incubated for 24 hrs by Western blot analysis. It counts as functional, cell-based.

Active and inactive are the calls of the source. The calls are words filed in the database; no cut-off is given here.

Turning to `CCC(OC(=O)C1=C[C@@H](O)[C@@H](O)[C@H](O)C1)c1cccc(OCCCC(O)(CC)CC)c1` (stereo partly specified), the inhibition entry in [1] and in assay [21] was “inactive” each time. Besides, the result in assay [2], in assay [4], in [6], in assay [7], in assay [8] and in assay [9] was Active. Besides, the result in assay [10], in assay [13], in assay [14], in assay [15], in assay [16] and in [17] was Active. Moreover, the outcome in assay [19] and in [20] was Active. Also, the inhibition result in [3], in assay [11], in [12] and in assay [18] was “Active” each time. Moreover, in assay [5], the Activity is 84%.
